Measured values reported in ChEMBL document CHEMBL4811298, “Discovery of novel class of histone deacetylase inhibitors as potential anticancer agents” (Bioorg Med Chem, 2021).
Calls of active or inactive are those of the source. The rule behind the calls is not given here.

Key:
[1] = target: Histone deacetylase 4 (Homo sapiens, UniProt P56524); test: Inhibition of N-terminal GST-tagged/C-terminal His-tagged human recombinant HDAC4 (627 to 1084 residues) expressed in baculovirus-infected Sf9 cells assessed as reduction in 7-amino-4-methylcoumarin release measured every 5 mins by fluorescence based analysis
[2] = target: Histone deacetylase 2 (Homo sapiens, UniProt Q92769); type: cell-based, Sf9
[3] = system: MCF7; test: Induction of apoptosis in human MCF7 cells assessed as reduction in Bcl3 gene expression at 3 uM incubated for 24 hrs by whole transcriptome analysis; type: functional, cell-based
[4] = target: Histone deacetylase 1 (Homo sapiens, UniProt Q13547); test: (§1) Inhibition of C-terminal FLAG/His-tagged human recombinant HDAC1 (1 to 482 residues) expressed in baculovirus-infected Sf9 cells assessed as reduction in 7-amino-4-methylcoumarin release using fluorogenic HDAC substrate 3 measured every 5 mins by fluorescence based analysis
[5] = organism: Homo sapiens; test: Selectivity ratio of IC50 for inhibition of N-terminal GST-tagged human HDAC7 (518 to end residues) expressed in baculovirus-infected Sf9 cells to IC50 for inhibition of C-terminal 6XHis-tagged human recombinant full length HDAC2 (1 to 488 residues) expressed in baculovirus-infected Sf9 cells
[6] = organism: Homo sapiens; test: Selectivity ratio of IC50 for inhibition of N-terminal GST-tagged human recombinant full length HDAC5 expressed in baculovirus-infected Sf9 cells to IC50 for inhibition of C-terminal 6XHis-tagged human recombinant full length HDAC2 (1 to 488 residues) expressed in baculovirus-infected Sf9 cells
[7] = system: MCF7; test: Downregulation of SIRT4 gene expression in human MCF7 cells at 3 uM incubated for 24 hrs by whole transcriptome analysis; type: functional, cell-based
[8] = Metabolic stability of the compound in CD-1 mouse liver microsomes assessed as parent compound remaining at 1 uM measured after 60 mins in absence of NADPH by LC-MS/MS analysis; type: ADME, Microsome; conditions: read-out: Stabilty
[9] = target: T1, Histone deacetylase 7 (Homo sapiens, UniProt Q8WUI4); test: Inhibition of N-terminal GST-tagged human HDAC7 (518 to end residues) expressed in baculovirus-infected Sf9 cells assessed as reduction in 7-amino-4-methylcoumarin release measured every 5 mins by fluorescence based analysis
T1 sequence (Q8WUI4 whole entry): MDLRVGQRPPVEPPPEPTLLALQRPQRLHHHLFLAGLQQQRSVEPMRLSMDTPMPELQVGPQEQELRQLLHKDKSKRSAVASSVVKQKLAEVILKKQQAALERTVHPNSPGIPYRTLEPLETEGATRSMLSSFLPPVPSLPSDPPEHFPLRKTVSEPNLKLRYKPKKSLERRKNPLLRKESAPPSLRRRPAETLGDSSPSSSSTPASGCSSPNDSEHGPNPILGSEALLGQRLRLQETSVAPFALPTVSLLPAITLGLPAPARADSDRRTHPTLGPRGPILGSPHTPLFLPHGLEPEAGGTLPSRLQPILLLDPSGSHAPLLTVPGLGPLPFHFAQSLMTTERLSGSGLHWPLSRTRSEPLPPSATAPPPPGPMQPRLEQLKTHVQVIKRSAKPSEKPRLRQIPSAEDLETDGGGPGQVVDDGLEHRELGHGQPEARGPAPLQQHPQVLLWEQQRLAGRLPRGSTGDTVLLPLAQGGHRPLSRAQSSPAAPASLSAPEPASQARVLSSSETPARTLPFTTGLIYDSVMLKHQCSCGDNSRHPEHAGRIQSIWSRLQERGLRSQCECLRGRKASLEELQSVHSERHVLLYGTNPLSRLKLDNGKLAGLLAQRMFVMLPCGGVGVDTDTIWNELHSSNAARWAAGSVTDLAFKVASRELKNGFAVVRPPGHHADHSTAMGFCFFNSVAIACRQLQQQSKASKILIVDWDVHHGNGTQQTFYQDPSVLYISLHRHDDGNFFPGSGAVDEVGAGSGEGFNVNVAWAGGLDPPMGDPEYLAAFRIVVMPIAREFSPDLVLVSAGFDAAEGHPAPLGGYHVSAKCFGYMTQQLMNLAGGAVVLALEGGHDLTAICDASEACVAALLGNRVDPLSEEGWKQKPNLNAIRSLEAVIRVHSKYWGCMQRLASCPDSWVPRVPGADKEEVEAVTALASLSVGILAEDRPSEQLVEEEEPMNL

[10] = system: MCF7; test: Induction of cell cycle arrest in human MCF7 cells assessed downregulation of E2F1 gene expression at 3 uM incubated for 24 hrs by whole transcriptome analysis; type: functional, cell-based
[11] = system: MCF7; test: Induction of cell cycle arrest in human MCF7 cells assessed downregulation of CDK2 gene expression at 3 uM incubated for 24 hrs by whole transcriptome analysis; type: functional, cell-based
[12] = target: Histone deacetylase 3/Nuclear receptor corepressor 2 (HDAC3/NCoR2) (Homo sapiens, UniProt O15379); test: as §1, with “His-tagged” for “FLAG/His-tagged”, “full length HDAC3” for “HDAC1”, “428 residues)/N-terminal GST-tagged human recombinant NCOR2 (395 to 489” for “482”
[13] = target: Histone deacetylase 9 (Homo sapiens, UniProt Q9UKV0); test: Inhibition of C-terminal His-tagged human HDAC9 (604 to 1066 residues) expressed in baculovirus-infected Sf9 cells assessed as reduction in 7-amino-4-methylcoumarin release measured every 5 mins by fluorescence based analysis

Histone deacetylase 2, sequence (Q92769 whole entry): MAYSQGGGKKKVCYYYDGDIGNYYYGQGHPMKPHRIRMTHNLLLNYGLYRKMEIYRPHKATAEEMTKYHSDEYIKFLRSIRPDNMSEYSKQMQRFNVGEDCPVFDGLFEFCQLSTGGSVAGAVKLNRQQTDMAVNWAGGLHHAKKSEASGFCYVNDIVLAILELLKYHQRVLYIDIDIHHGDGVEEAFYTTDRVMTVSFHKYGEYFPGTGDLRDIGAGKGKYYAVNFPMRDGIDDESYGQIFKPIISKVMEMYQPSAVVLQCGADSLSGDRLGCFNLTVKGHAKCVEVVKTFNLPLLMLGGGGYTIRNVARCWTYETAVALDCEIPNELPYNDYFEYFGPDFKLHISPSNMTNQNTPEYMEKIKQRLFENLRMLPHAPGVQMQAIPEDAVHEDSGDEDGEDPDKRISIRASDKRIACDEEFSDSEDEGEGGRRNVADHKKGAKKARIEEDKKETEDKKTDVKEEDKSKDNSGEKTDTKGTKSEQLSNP
Histone deacetylase 3/Nuclear receptor corepressor 2 (HDAC3/NCoR2), sequence (O15379 whole entry, the tested form may be a part): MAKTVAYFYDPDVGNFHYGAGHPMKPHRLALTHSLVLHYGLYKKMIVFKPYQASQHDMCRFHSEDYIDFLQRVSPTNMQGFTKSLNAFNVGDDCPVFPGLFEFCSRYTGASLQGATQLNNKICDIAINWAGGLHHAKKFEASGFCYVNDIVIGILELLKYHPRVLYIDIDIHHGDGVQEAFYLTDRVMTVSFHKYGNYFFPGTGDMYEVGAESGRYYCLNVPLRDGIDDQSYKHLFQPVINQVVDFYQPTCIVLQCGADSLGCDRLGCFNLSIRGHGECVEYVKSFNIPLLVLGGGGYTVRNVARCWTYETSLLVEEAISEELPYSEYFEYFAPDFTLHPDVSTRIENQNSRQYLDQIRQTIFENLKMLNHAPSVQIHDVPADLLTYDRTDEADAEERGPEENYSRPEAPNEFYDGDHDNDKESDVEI
Histone deacetylase 3/Nuclear receptor corepressor 2 (HDAC3/NCoR2), sequence (Q9Y618 whole entry, further chain, the tested form may be a part): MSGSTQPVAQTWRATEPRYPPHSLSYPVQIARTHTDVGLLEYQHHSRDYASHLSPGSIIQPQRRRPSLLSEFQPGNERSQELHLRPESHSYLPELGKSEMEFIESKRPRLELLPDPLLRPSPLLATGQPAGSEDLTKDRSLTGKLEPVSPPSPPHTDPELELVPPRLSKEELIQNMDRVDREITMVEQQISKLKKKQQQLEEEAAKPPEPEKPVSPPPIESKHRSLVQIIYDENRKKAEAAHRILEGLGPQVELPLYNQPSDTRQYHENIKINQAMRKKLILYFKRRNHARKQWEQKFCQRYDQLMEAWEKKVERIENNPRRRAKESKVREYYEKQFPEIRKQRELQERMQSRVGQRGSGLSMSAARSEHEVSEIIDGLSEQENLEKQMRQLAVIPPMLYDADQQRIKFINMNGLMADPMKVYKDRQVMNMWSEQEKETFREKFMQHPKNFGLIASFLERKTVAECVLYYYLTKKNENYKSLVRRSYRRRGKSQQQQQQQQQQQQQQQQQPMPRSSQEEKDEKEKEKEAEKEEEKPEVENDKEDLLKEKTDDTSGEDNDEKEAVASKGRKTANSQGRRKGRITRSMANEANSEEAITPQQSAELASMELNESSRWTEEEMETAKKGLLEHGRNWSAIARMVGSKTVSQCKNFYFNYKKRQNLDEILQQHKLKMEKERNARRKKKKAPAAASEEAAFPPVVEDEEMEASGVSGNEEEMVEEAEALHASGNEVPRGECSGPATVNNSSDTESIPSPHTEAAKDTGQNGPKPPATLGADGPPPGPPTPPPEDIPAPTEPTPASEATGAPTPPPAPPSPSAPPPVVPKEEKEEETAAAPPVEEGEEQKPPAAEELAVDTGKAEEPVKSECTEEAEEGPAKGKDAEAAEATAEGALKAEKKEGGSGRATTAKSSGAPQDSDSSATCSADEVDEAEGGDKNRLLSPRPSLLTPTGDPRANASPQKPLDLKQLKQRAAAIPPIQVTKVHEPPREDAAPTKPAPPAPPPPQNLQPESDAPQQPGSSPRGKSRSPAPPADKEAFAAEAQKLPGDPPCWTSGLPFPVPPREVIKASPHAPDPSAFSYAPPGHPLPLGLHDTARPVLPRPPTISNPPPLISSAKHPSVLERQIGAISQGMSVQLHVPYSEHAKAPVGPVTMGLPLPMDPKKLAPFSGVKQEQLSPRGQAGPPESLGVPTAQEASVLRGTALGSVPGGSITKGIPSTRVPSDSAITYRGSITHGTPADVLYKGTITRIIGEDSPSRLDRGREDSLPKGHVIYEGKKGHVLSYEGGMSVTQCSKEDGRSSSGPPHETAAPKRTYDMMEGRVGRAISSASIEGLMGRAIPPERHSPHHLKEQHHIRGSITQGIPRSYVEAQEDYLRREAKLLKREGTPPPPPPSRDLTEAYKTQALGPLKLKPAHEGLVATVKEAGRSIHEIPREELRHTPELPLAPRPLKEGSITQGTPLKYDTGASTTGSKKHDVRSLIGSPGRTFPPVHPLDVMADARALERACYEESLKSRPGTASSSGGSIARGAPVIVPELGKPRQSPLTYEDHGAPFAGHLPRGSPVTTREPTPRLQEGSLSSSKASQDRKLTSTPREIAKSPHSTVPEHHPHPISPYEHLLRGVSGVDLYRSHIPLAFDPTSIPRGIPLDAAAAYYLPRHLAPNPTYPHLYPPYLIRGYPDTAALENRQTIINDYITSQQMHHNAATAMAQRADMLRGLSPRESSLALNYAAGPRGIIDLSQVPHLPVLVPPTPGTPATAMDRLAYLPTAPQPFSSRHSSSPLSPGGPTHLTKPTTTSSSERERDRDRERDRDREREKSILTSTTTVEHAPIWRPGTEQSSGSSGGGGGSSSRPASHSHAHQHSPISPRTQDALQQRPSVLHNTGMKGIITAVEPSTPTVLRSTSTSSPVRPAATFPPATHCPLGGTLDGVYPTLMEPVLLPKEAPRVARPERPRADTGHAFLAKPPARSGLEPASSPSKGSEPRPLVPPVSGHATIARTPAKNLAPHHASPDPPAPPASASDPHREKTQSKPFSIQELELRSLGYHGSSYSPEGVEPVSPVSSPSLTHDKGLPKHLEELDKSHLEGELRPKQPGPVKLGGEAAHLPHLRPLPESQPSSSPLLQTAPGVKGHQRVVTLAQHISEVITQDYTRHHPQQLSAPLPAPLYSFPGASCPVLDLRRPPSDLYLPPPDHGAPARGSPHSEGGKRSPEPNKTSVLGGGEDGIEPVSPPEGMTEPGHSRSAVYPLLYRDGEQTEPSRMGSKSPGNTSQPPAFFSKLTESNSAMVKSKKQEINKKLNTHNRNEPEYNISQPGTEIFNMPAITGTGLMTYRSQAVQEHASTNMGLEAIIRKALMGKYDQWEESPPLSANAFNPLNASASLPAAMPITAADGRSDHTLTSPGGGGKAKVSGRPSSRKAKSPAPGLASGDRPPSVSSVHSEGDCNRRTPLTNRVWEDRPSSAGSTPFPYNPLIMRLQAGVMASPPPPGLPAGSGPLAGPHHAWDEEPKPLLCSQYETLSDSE
Histone deacetylase 1, sequence (Q13547 whole entry, the tested form may be a part): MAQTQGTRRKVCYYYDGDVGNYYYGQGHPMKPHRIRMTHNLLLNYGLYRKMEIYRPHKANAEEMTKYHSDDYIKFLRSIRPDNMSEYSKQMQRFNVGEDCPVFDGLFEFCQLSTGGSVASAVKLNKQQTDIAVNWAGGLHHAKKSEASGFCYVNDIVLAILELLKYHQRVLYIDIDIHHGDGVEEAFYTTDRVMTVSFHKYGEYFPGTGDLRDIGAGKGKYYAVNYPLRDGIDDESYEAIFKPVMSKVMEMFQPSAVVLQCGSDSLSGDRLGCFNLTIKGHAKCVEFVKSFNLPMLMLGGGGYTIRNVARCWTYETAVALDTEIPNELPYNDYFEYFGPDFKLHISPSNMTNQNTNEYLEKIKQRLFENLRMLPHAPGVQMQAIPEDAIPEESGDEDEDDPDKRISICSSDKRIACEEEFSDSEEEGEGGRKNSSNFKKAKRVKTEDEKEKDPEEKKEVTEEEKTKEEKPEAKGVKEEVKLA
Histone deacetylase 4, sequence (P56524 whole entry, the tested form may be a part): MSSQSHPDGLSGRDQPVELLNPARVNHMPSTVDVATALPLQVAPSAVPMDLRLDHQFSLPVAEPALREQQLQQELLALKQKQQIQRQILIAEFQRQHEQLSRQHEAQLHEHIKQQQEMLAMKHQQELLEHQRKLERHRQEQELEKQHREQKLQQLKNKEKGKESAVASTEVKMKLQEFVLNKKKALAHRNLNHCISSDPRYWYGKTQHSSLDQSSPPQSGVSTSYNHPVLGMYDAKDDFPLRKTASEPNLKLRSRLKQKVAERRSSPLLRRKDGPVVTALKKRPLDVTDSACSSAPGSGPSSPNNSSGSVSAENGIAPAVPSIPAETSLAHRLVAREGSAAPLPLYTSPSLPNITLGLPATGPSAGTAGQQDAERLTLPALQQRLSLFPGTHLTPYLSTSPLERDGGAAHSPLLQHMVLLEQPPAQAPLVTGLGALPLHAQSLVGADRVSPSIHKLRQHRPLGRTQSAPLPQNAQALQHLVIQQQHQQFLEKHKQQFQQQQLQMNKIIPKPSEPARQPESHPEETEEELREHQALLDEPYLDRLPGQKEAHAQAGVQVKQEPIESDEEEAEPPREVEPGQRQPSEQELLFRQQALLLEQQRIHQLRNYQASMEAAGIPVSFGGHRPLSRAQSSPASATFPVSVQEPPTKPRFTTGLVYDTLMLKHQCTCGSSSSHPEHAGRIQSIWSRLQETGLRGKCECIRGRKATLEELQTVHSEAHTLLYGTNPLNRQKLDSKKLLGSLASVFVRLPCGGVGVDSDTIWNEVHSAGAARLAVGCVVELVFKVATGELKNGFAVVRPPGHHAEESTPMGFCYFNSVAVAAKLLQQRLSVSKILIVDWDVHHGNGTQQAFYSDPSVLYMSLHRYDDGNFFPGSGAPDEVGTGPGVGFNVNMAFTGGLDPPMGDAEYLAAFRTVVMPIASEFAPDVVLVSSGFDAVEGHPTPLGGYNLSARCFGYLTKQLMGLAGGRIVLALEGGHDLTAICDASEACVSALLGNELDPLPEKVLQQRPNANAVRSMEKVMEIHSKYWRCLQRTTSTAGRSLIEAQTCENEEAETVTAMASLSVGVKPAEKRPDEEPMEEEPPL

Structure (SMILES): N=C(NO)c1ccc2nc(-c3cccc(-c4cn5ccccc5n4)c3)[nH]c2c1
- IC50 [1]: > 10 µM
- IC50 [2]: 0.4 µM
- Activity [3]: Active
- IC50 [4]: 0.55 µM
- Ratio IC50 [5]: > 44
- Ratio IC50 [6]: > 44
- inhibition [7]: Active
- remaining at 1 h, 1 µM [8]: 94%
- IC50 [9]: > 10 µM
- Activity [10]: Active
- Activity [11]: Active
- IC50 [12]: > 10 µM
- IC50 [13]: > 10 µM
